{"source": "patent US20030108872A1", "about": "“Genomics-assisted rapid identification of targets” (priority 2000, published 2003)", "type_in_all_cases": "cell-based", "key": {"[1]": {"test_system": "B. subtilis NO-347 (BD170 thrC::Pspac-murA kanR ΔmurA::CmR)", "assay": "MIC by microbroth dilution in B. subtilis under-expressing murA", "conditions": "IPTG 0-0.1 mM, compared to the control strain, FIG. 10", "experimental": "Materials and Methods. The materials are the same as discussed above. Plasmids are listed in Table 4 B. subtilis strains were routinely grown in LB media or on LB agar plates containing 1.5% agar (Sambrook et al., MOLECULAR CLONING: A LABORATORY MANUAL, 2nd ed., Cold Spring Harbor Laboratory Press, 1989). MIC determination is performed using microbroth dilution-cultures grown in Mueller Hinton broth in 96-well microtiter plates purchased from Nunc (Plates—Cat. No. 262162; Lids—Cat. No. 264122). When required, media were supplemented with 5 μg/ml chloramphenicol or 10 μg/ml kanamycin. IPTG was added to culture media at a final concentration of 0.05 mM for routine culture growth of B. subtilis NO-347 (BDI70 thrC::Pspac-murA kan^R ΔmurA::Cm^R), which is dependent on IPTG for growth.\nThe endogenous murA gene in NO-360 was deleted by allelic replacement as follows (see FIG. 9). DNA fragments flanking the 5′ and 3′ ends of the murA gene were amplified from B. subtilis 168 genomic DNA using primer pairs KO mura F1+R2 and KO murA F2+R1, respectively. The 5′ and 3′ flanking fragments were linked to the Cm^R gene from pEVP3 using the cross-over PCR technique with the primer pair KO mura F1+R1. The resulting PCR product (shown in FIG. 9B) was used to transform naturally competent B. subtilis NO-360. Cm^R clones were selected in the presence of 0.01 mM and 0.05 mM IPTG. Allelic replacement of murA in Cm^R clones was verified by PCR. Strain NO-347 (BD170 thrC::Pspac-murA Kan^R ΔmurA::Cm^R) was chosen for MIC determinations for phosphomycin in presence of various concentrations of the regulator IPTG.\nMIC determinations. Determination of minimum inhibitory concentration (MIC) for phosphomycin, novobiocin, erythromycin and trimethoprim lactate were performed in 96-well microliter plates using the microbroth dilution technique as described in NCCLS. 1997. Methods for dilution antimicrobial susceptibility tests for bacteria that grow aerobically-fourth edition; approved standard. NCCLS document M7-A4. NCCLS, Wayne, Pa. For MIC determinations using strain NO-347, various concentrations (0-0.1 mM) were added to the media. Growth was quantitated by OD600 measurements using a SpectroMax 250 plate reader (Molecular Devices)."}, "E. coli strain WO-153": {"test_system": "E. coli strain WO-153", "assay": "Genome-wide E. coli ORFmer overexpression rescue (OER) assay", "experimental": "Over expression Rescue Assays. Over expression assays were conducted with the E. coli strain WO-153 described in Table 7. Construction of WO-0153. […] The asmB1 mutation is a G to A transition at position 628 in the 1pxC gene. […] The tolC gene encodes an outer membrane protein that acts as a channel for the acrAB efflux pumps (See for example, Fralick, J. 1996. J. Bacteriol. 178:5801-5805). […] WO-0153 was constructed as follows. The asmB1 mutation was introduced into a DNA fragment containing the 1pxC gene and 1 kb of the 5′ end of the secA gene by site directed mutagenesis of the 1pxC gene using standard methods. A kan^R resistance cassette flanked by FRT sites was introduced 60 bp downstream of the 1pxC gene. The linear DNA construct was introduced into electrocompetent and recombinogenic E. coli KM354 (pTP223) as described by Murphy (See for example, Murphy, 1998, J. Bacteriol. 180: 2063-71). Transformants were selected on LB agar containing kanamycin (35 mcg/ml) and screened for sensitivity to novobiocin (20 mcg/ml). The presence of the asmB1 mutation in clones with the expected phenotype was verified by DNA sequence analysis. The kanR gene flanked by FRT sites was then excised from the 1pxC-secA intergenic region using a previously described method (See for example, Cherepanove, P. P, and Wackernagel, W. 1995. Gene 158: 9-14.). […] 178:5138-5143; Fralick, J. (1996). J. Bacteriol. 178:5801-5805; Fralick, J. A., et al. (1994) J. Bacteriol. 176:6404-6406; and Cherepanove, P. P, et al., (1995) Gene 158:9-14. […] Plasmid library DNA was transformed into WO-153 by electroporation as described above. Cells were collected from transformation plates by scraping and were equalized to an optical density of 1.53 on a Beckman DU650 spectrophotometer([…]). Groups of five libraries were mixed and frozen in LB media plus 10% (vol/vol) glycerol by immersion in a dry-ice/ethanol bath for 5 minutes.\nOver-expression assays were performed in liquid media in a microtiter format, in a gradient plate format, or in a disk-diffusion format. The protocol used for the microtiter format was similar to the protocol described above for the MIC assay. Aliquots of 5 library pools spanning the genome were thawed at room temperature and 200 ul of each was inoculated into its own 20 ml of Mueller Hinton media containing ampicillin at 200 ug/ml and anhydrous tetracycline inducer as appropriate. Typically, replicates were performed using a number of final inducer concentrations, ranging from 0 to 100 ng/ml. Following an adequate mixing, 50 ul of inoculated media was mixed with 50 ul of the test antibiotic in Nunc brand 96-well microtiterplates. Typically, each group of five libraries was mixed with a range of concentrations of antibiotic spanning the minimum inhibitory concentration (MIC) of the antibiotic. […] Columns may contain 10 different groups of libraries as well as null vector and no innoculum controls. After mixing inoculum plus media with antibiotic, well contents were mixed by pipetting and incubated at 37° C. for 16 to 20 hours. Optical density at 600 nm was measured using a Molecular Devices SpectraMAX 250 spectrophotometer. […] Contents of wells showing rescue were transferred to LB agar plates containing ampicillin at 100 ug/ml, and were spread to obtain single colonies. Alternately, it is possible to maintain selection for the antibiotic being assayed by including it in the agar plates at this point.\nOER Assay using Disk diffusion and Gradient Plate Assay formats. In the Disk diffusion plate format, the 3 inocula (see below) were plated on MHB plates containing ampicillin (100 mcg/ml) and anhydrous tetracycline (a-tet, 100 ng/ml). Two paper disks (6 mm diameter) containing 10×and 20×MIC of the test antiobiotic were placed on the surface of the plate."}, "[2]": {"test_system": "cells in which folA is regulated by PBAD, PLtetO-1, or Plac/ara-1", "assay": "MIC by microbroth dilution in E. coli under-expressing folA", "conditions": "FIG. 5", "experimental": "In another example, the wild-type native folA gene was knocked out, and a wild-type copy of the gene folA, which encodes the protein dihydrofolate reductase, was placed under ectopic expression in the yibD locus under regulation by PBAD with the regulator, L-arabinose. Dihydropteroate synthetase, the gene product of […], catalyzes the enzymatic reaction two steps before dihydrofolate reductase in the folate biosynthetic pathway.\n(§1) Methods. […] IPTG was added to a final concentration of 0.1 mM and anhydrous-tetracycline was added to a final concentration of 100 ng/ml to the culture media for routine growth of GTC-EC#313 and GTC-EC#346, respectively.\n(§2) The specificity and sensitivity of the resultant colonies to added drugs were followed by measuring the minimal inhibitory concentration (MIC) of trimethoprim, sulfamethozasone, phosphomycin and D-cycloserine at varying regulator levels. This was performed according to NCCLS (National Center for Clinical Laboratory Standards) recommendations(NCCLS, 1997, METHODS FOR DILUTION ANTIMICROBIAL SUSCEPTIBILITY TESTS FOR BACTERIA THAT GROW AEROBICALLY, 4th ed.; approved standard. NCCLS document M7-A4. NCCLS, Wayne, Pa.), in 100 μl volume in 96-well format, with serial two-fold dilutions of drug concentration."}, "[3]": {"test_system": "cells in which murA is regulated by PBAD", "assay": "MIC by microbroth dilution in E. coli under-expressing murA", "conditions": "FIG. 6", "experimental": "The wild-type gene murA, which encodes the enzyme UDP-N-acetylglucosamine enolpyruvate transferase, was knocked out in E. coli, and the gene was placed under ectopic expression in the yibD locus under regulation by PBAD with the regulator, L-arabinose.\nas §1, §2"}}}
{"compound": "CO[C@@H]1[C@@H](OC(N)=O)[C@@H](O)[C@H](Oc2ccc3c(O)c(NC(=O)c4ccc(O)c(CC=C(C)C)c4)c(=O)oc3c2C)OC1(C)C", "note": "[novobiocin]", "values": [{"measurement": "sensitivity (MIC) on regulated under-expression of murA", "setting": "[1]", "value": "does not affect sensitivity"}]}
{"compound": "Oc1cc(Cl)ccc1Oc1ccc(Cl)cc1Cl", "note": "[triclosan]", "values": [{"measurement": "PCR verification of OER clones: expected target gene", "setting": "E. coli strain WO-153; liquid microtiter assay, expected targets folA, murA, fabI", "value": "expected target gene was identifed"}, {"measurement": "PCR verification of OER clones: expected clone", "setting": "E. coli strain WO-153; two plate assay format (disk diffusion, gradient plate)", "value": "expected clone was isolated"}]}
{"compound": "Cc1cc(NS(=O)(=O)c2ccc(N)cc2)no1", "note": "[sulfamethozasone]", "values": [{"measurement": "MIC with decreasing regulator (L-arabinose) level", "setting": "[2]", "value": "decreases"}]}
{"compound": "N[C@@H]1CONC1=O", "note": "[D-cycloserine]", "values": [{"measurement": "identity of OER clones that were not the expected gene, by sequence analyses", "setting": "E. coli strain WO-153", "value": "closely related ddlB gene"}, {"measurement": "OER clones that were not the expected ddlA gene", "setting": "E. coli strain WO-153; PCR verification of OER clones", "value": 80, "unit": "%"}, {"measurement": "sensitivity on under-expression of murA", "setting": "[3]", "value": "hypersensitivity"}]}
{"compound": "CC[C@H]1OC(=O)[C@H](C)[C@@H](O[C@H]2C[C@@](C)(OC)[C@@H](O)[C@H](C)O2)[C@H](C)[C@@H](O[C@@H]2O[C@H](C)C[C@H](N(C)C)[C@H]2O)[C@](C)(O)C[C@@H](C)C(=O)[C@H](C)[C@@H](O)[C@]1(C)O", "note": "[erythromycin]", "values": [{"measurement": "sensitivity (MIC) on regulated under-expression of murA", "setting": "[1]", "value": "does not affect sensitivity"}]}
